The values below come from patent publication US12097261B2, “CDK2 degraders and uses thereof” (Kymera Therapeutics, Inc., priority 2021, dated 2024).

One assay addresses T1, CDK2 (Homo sapiens, UniProt P24941).
T1 construct: endogenous in cells; host or cells: OVCAR-8
The assay is described as follows: CDK2 degradation by immunoblotting in OVCAR-8 cells. The assay is classed as cell-based. As to conditions: 24 h. As to the method:
(§1) CDK2 and CDK1 Degradation by Immunoblotting
(§2) Ovarian cancer cell line OVCAR-8 were cultured in 12-well plates in complete growth medium. A serial dilution of each compound was added to individual wells from a 2× stock solution, and cells were cultured for 24 hours. Cells were collected by centrifugation, and cell pellets lysed with addition of chilled RIPA buffer supplemented with protease/phosphatase inhibitors followed by incubation for 20 minutes on ice. Lysates were clarified by centrifugation and 5×SDS loading buffer was added to the supernatant followed by heating to 100° C. for 10 minutes. An aliquot of the samples were separated by SDS-PAGE and transferred to a nitrocellulose membrane. Immunoblotting was performed according to standard procedures using anti-CDK2 primary antibody (Abcam ab32147) at 1:1000 dilution and IRDye 800CW goat anti-Rabbit secondary antibody (LICOR) and imaged using a LICOR Odyssey instrument. Blots were stained with anti-beta-Actin primary antibody (Cell Signaling Technology mAb #4970) for normalization. The normalized CDK2/Actin values were calculated as a percent of DMSO treated cells and plotted to determine the concentration at which 50% of CDK2 signal is decreased (DC50). The determination of CDK1 degradation was determined similarly using anti-CDK1 primary antibody (Abcam ab131450).

A further assay deals with T2, CDK1 (Homo sapiens, UniProt P06493).
T2 construct: endogenous in cells; host or cells: OVCAR-8
Description: CDK1 degradation by immunoblotting in OVCAR-8 cells. It counts as cell-based. As to conditions: 24 h. As to the method:
as §1, §2

Structures are written as SMILES.

As usually defined, the DC50 is the concentration at which degradation of the target reaches its halfway point.

T2 sequence (P06493 whole entry): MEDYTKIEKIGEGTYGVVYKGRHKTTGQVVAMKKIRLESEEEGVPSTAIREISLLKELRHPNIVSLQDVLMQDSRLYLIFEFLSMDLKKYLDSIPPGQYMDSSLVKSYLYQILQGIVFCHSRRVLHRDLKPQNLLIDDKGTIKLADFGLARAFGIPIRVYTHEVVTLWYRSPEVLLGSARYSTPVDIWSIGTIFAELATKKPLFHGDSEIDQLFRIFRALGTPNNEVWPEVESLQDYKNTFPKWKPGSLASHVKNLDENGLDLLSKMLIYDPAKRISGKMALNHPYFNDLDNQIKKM

As for `Cc1cc(S(=O)(=O)NCCOC2CC3(C2)CN(Cc2ccc4c(c2)n(C)c(=O)n4C2CCC(=O)NC2=O)C3)ccc1Nc1ncc2ccc(=O)n(C3CCCC3)c2n1` (centres unmarked) [I-111], the figures for the half-maximal degradation concentration (DC50) at CDK2 and at CDK1 were 10 to 100 nM and 1000 to 5000 nM, respectively.
On to `Cc1cc(S(=O)(=O)N2CCC(CN(C)C3CCN(c4cccc5c4n(C)c(=O)n5C4CCC(=O)NC4=O)CC3)CC2)ccc1Nc1ncc2ccc(=O)n(C3CCCC3)c2n1` (centres unmarked) [I-114], for which the half-maximal degradation concentration (DC50) at CDK2 is below 10 nM; at CDK1, 1000 to 5000 nM.
For the compound `Cc1cc(S(=O)(=O)NCCOC2CCC3(CC2)CCN(CCCc2ccc4c(c2)n(C)c(=O)n4C2CCC(=O)NC2=O)CC3)ccc1Nc1ncc2ccc(=O)n(C3CCCC3)c2n1` (centres unmarked) [I-124], the DC50 on CDK2 is below 10 nM; at CDK1 it was 1000 to 5000 nM.
Consider `Cc1cc(S(=O)(=O)NCCOC2CC3(C2)CN(CC#Cc2ccc4c(c2)n(C)c(=O)n4C2CCC(=O)NC2=O)C3)ccc1Nc1ncc2ccc(=O)n(C3CCCC3)c2n1` (centres unmarked) [I-126], for which the DC50 is below 10 nM on CDK2 and 1000 to 5000 nM at CDK1.
As to `Cc1cc(S(=O)(=O)NCCOCCOCCOCCOCCCc2ccc3c(c2)n(C)c(=O)n3C2CCC(=O)NC2=O)ccc1Nc1ncc2c(C)cc(=O)n(C3CCCC3)c2n1` (centres unmarked) [I-138], the DC50 at CDK2 and at CDK1 was above 5000 nM throughout.
`Cc1cc(S(=O)(=O)NCCOCCOCCOCCOCC(=O)N[C@H](C(=O)N2C[C@H](O)C[C@H]2C(=O)NCc2ccc(-c3scnc3C)cc2)C(C)(C)C)ccc1Nc1ncc2ccc(=O)n(C3CCCC3)c2n1` [I-139]: the DC50 on CDK2 and at CDK1 was above 5000 nM each time.
As to `CC(C)NC(=O)O[C@@H]1CC[C@H](c2cc(NC(=O)c3cnn(CCCCCCCCCCCc4ccn5c(N6CCC(=O)NC6=O)cnc5c4)c3)[nH]n2)C1` [I-142], the DC50 is 10 to 100 nM at CDK2 and above 5000 nM at CDK1.
On the same counts, the results for `CC(C)NC(=O)O[C@H]1CC[C@@H](c2cc(NC(=O)c3cc(COCCCCCCCCCc4ccn5c(N6CCC(=O)NC6=O)cnc5c4)nn3C)[nH]n2)C1` [I-145] are below 10 nM and 100 to 1000 nM.
In the case of `Cc1cc(S(=O)(=O)NCCOCCOCCCc2ccc3c(c2)n(C)c(=O)n3C2CCC(=O)NC2=O)ccc1Nc1ncc2ccc(=O)n(C3CCCC3)c2n1` (centres unmarked) [I-146], the DC50 on CDK2 is below 10 nM; at CDK1, 1000 to 5000 nM.
`CN[C@@H](C)C(=O)N[C@H](C(=O)N1CCC[C@H]1c1nc(C(=O)c2cccc(OCCCCCCCCCCCn3cc(C(=O)Nc4cc([C@H]5CC[C@@H](OC(=O)NC(C)C)C5)n[nH]4)cn3)c2)cs1)C1CCCCC1` [I-148, (1R,3S)-3-(5-(1-(11-(3-(2-((S)-1-((S)-2-cyclohexyl-2-((S)-2-(methylamino)propanamido)acetyl)pyrrolidin-2-yl)thiazole-4-carbonyl)phenoxy)undecyl)-1H-pyrazole-4-carboxamido)-1H-pyrazol-3-yl)cyclopentyl isopropylcarbamate]: the DC50 on CDK2 and on CDK1 was 1000 to 5000 nM in each case.
In the case of `CC(C)NC(=O)O[C@H]1CC[C@@H](c2cc(NC(=O)c3ccnn3CCOCCOCCOCCOCCCc3ccc4c(c3)n(C)c(=O)n4C3CCC(=O)NC3=O)n[nH]2)C1` (some centres unmarked) [I-149], the DC50 was 10 to 100 nM at CDK2 and above 5000 nM at CDK1.
With `Cc1cc(S(=O)(=O)NCCOCCOCCCc2ccc3c(c2)n(C)c(=O)n3C2CCC(=O)NC2=O)ccc1Nc1ncc2c(n1)N(C1CCCC1)C(=O)C21CC1` (centres unmarked) [I-150], the DC50 on CDK2 and at CDK1 was above 5000 nM throughout.
With `CC(C)NC(=O)O[C@H]1CC[C@@H](c2cc(NC(=O)c3ccnn3CCN3CCN(CCOCCCc4ccc5c(c4)n(C)c(=O)n5C4CCC(=O)NC4=O)CC3)[nH]n2)C1` (some centres unmarked) [I-151], the figures for the DC50 at CDK2 and on CDK1 were 1000 to 5000 nM and above 5000 nM, respectively.
